Test results taken from US4228187A, “Alkyl and cycloalkylthiophenylalkylaminoalkanols, their salts and the preparation thereof” (priority 1973, dated 1980).

How the values were obtained:
[1] = test system: occluding thrombosis of the femoral artery; experiment: Prevention of arterial thrombosis in dogs; assay type: in vivo, dog
Procedure: In animals, 1-(4-isopropylthiophenyl)-2-n-octylaminopropanol reduces thromboformation in arteries and veins.
Thrombosis was induced in the femoral
artery of anesthetized dogs by a 30 min perfusions, in a
catheterized area of the vessel, of a solution of pronase.
Drugs administrations were made at 24 h intervals, for 5 days
the last dosage being given 30 min before anesthesia.

DL50 mouse p.o. = details: in vivo, po, limits of reliability (p : 0.95) in brackets
Source text: (1) the limits of reliability (p : 0.95) are given in brackets.

guinea pig atria's = experiment: Protective activity against anoxia (guinea pig atria); design: key: scale: + = 10 to 20% increase in survival time; details: increase in survival time
Source text: (5) guinea pig atria's;
+ = increase in survival time of 10 to 20%

[2] = test system: spontaneously hypertensive rat; experiment: Antihypertensive activity (spontaneously hypertensive rat); assay type: in vivo; details: 15 mg/kg per os
Procedure: (3) spontaneously hypertensive rat; 15 mg/kg per os;
± reduction of systolic pressure up to 10 mm of Hg
+ reduction of systolic pressure of 10 to 20 mm Hg
++ reduction of systolic pressure of at least 20 mm of Hg

BaCl2 = experiment: Antispasmodic activity, BaCl2
Ac.chol. = experiment: Antispasmodic activity, Ac.chol.
Hist. = experiment: Antispasmodic activity, Hist.
cholesterol biosynthesis = experiment: Inhibition of cholesterol biosynthesis in vitro (rat liver); assay type: cell-based; details: Rattus norvegicus, AA, rat liver, mean, read-out: Inhibition of incorporation of 1-^14 C-acetate (AA)
Source text: |Inhibition of cholesterol biosynthesis in vitro (rat liver). In- |hibitory effect of suloctidil and clofibrate on the incorpora- |tion of 1-^14 [NT] and 2-^14 C-mevalonate (MVA). |are mean values and range, expressed in % of inhibition. Unless |otherwise stated, n = 3.

Structure (SMILES) | n dogs with occluding thrombosis ([1]; 5 × 100 mg/kg p.o., n = 10, controls 10 of 16, * α = 0.05) | incidence of occluding thrombosis of the femoral artery (in words) ([1]; suloctidil 5 times 5 mg/kg i.m., acetylsalicylic acid 5 times 100 mg/kg p.o.) | LD50 (DL50 mouse p.o.) | Protective activity against anoxia (guinea pig atria's) | Anti-hypertensive activity [2] | Antispasmodic activity CE 100, BaCl2 (BaCl2) | Antispasmodic activity CE 100, Ac.chol. (Ac.chol.) | Antispasmodic activity CE 100, Hist. (Hist.) | inhibition at 100 µM (cholesterol biosynthesis; 10^-4 M) | inhibition at 10 µM (cholesterol biosynthesis; 10^-5 M)
CC(=O)Oc1ccccc1C(=O)O [Acetylsalicylic acid, reference compound] | 1 | also effective in these conditions |  |  |  |  |  |  |  | 
CCCCNC(C)C(O)c1ccc(SC)cc1 (stereo not shown) [No 10] |  |  | ~100 mg/kg | + (increase in survival time of 10 to 20%) | 0 | 1000 μ g γ 60 ml | 500 μ g γ 60 ml | 1000 μ g γ 60 ml |  | 
CCCCCCCCNC(CC)C(O)c1ccc(SCC)cc1 (stereo not shown) [No 20] |  |  | ~2450 mg/kg | 0 | 0 | 100 μ g γ 60 ml | 100 μ g γ 60 ml | 200 μ g γ 60 ml |  | 
CCCCCCCCNC(CC)C(O)c1ccc(SC(C)C)cc1 (stereo not shown) [No 8] |  |  | > 4000 mg/kg | 0 | 0 | 100 μ g γ 60 ml | 500 μ g γ 60 ml | 500 μ g γ 60 ml |  | 
CCCCCCCCNC(C)C(O)c1ccc(SC)cc1 (stereo not shown) [No 11] |  |  | 970 mg/kg | 0 | ++ (reduction of systolic pressure of at least 20 mm of Hg) | 100 μ g γ 60 ml | 200 μ g γ 60 ml | 200 μ g γ 60 ml |  | 
CCOC(=O)C(C)(C)Oc1ccc(Cl)cc1 [Clofibrate, reference compound] |  |  |  |  |  |  |  |  | 47.4% | 4.2%
CCCCCCCCNC(C)C(O)c1ccc(SCC)cc1 (stereo not shown) [No 13] |  |  | 1750 mg/kg | 0 | ++ (reduction of systolic pressure of at least 20 mm of Hg) | 100 μ g γ 60 ml | 200 μ g γ 60 ml | 100 μ g γ 60 ml |  | 
